Measurements taken from patent US20230303564A1, “PYRIMIDINE RING COMPOUND” (MEDSHINE DISCOVERY INC., priority 2020, published 2023).
pIC50: −log10 of the molar value.

Key:
CDK2/CyclinE1 = CDK2/CyclinE1 (Homo sapiens (Human), UniProt P24941); test: CDK2/CyclinE1 enzyme activity test (ADP-Glo); assay type: biochemical; conditions: 150 μM ATP, 25° C. 60 minutes, read-out: CDK2/Cyclin E1 IC50
Protocol: CDK2/CyclinE1 Enzyme Reaction System
(§1) Enzymes, substrates, ATP, and inhibitors were diluted by kinase buffer in the kit. The compounds to be tested were diluted 5-fold with a multi-channel pipette to the eighth concentration, that is, from 50 μM to 0.65 nM, the concentration of DMSO was 5%, and a double-hole experiment was set up. 1 μL of each concentration gradient of inhibitors, 2 μL of CDK2/CyclinE1 enzyme (2 ng), 2 μL mixture of substrate and ATP (150 μM ATP, 0.1 μg/μL substrate) were added to the microplates, and the final concentration gradient of the compound was 10 μM to 0.13 nM. The reaction system was reacted at 25° C. for 60 minutes. After the reaction, 5 μL of ADP-Glo reagent was added to each well, the reaction was carried out at 25° C. for 40 minutes, after the reaction was completed, 10 μL of kinase detection reagent was added to each well, the reaction was carried out at 25° C. for 30 minutes, the multiple label analyzer was used to read the chemiluminescence with an integration time of 0.5 seconds.
(§2) The equation (Sample−Min)/(Max−Min)*100% was used to convert the raw data into inhibition rate, and the value of IC50 can be obtained by curve fitting with four parameters (obtained by log (inhibitor) vs. response-Variable slope mode in GraphPad Prism). The enzymatic inhibitory activity of the compounds of the present disclosure on CDK1/CyclinB1, CDK2/CyclinA2, CDK2/CyclinE1, CDK4/CyclinD1, CDK6/CyclinD1, CDK7/CyclinH/MAT1, CDK9/CyclinT1 was provided in Table 1.

CDK4/CyclinD1 = CDK4/CyclinD1 (Homo sapiens (Human), UniProt P11802); test: CDK4/CyclinD1 enzyme activity test (LANCE Ultra TR-FRET); assay type: biochemical; conditions: 350 μM ATP, 25° C. 120 minutes, read-out: CDK4/Cyclin D1 IC50
Protocol: CDK4/CyclinD1 Enzyme Reaction System
(§3) Preparation of Kinase Buffer:
(§4) The composition of the buffer: 50 mM of hydroxyethylpiperazine ethanesulfonic acid solution at pH 7.5, 1 mM of ethylenediaminetetraacetic acid, 10 mM of magnesium chloride, 0.01% Brij-35, and 2 mM of dithiothreitol.
(§5) Enzymes, substrate LANCE Ultra ULight™-4E-BP-1(Thr37146) Peptide, ATP, and inhibitors were diluted by kinase buffer.
(§6) The compounds to be tested were diluted 5-fold with a multi-channel pipette to the eighth concentration, that is, from 40 μM to 0.512 nM, the concentration of DMSO was 4%, and a double-hole experiment was set up. […] The reaction system was reacted at 25° C. for 120 minutes. After the reaction, 5 μL mixture of EDTA and 2× LANCE™ Detection Buffer (1:1) were added to each well, the reaction was carried out at 25° C. for 5 minutes, after the reaction was completed, 5 μL of LANCE Ultra Eu-anti-P-4E-BP1(Thr37MS) (4 nM) was added to each well, the reaction was carried out at 25° C. for 60 minutes, the reaction signal was detected by Nivo instrument according to the principle of time-resolved fluorescence resonance energy transfer.
as §2

CDK6/CyclinD1 = CDK6/CyclinD1 (Homo sapiens (Human), UniProt Q00534); test: CDK6/CyclinD1 enzyme activity test (LANCE Ultra TR-FRET); assay type: biochemical; conditions: 250 μM ATP, 25° C. 120 minutes, read-out: CDK6/Cyclin D1 IC50
Protocol: CDK6/CyclinD1 Enzyme Reaction System
as §3, §4, §5, §6, §2

CDK9/CyclinT1 = CDK9/CyclinT1 (Homo sapiens (Human), UniProt P50750); test: CDK9/CyclinT1 enzyme activity test (ADP-Glo); assay type: biochemical; conditions: 100 μM ATP, 25° C. 120 minutes, read-out: CDK 9/Cyclin T1 IC50
Protocol: CDK9/CyclinT1 Enzyme Reaction System
as §1, with “of CDK9/CyclinT1” for “of CDK2/CyclinE1”, “enzyme (4” for “enzyme (2”, “ATP (100” for “ATP (150”, “ATP, 0.2” for “ATP, 0.1”, “for 120” for “for 60”
as §2

[1] = tested on: human ovarian cancer OVCAR-3 cells subcutaneous xenograft tumor; test: In vivo efficacy study, OVCAR-3 subcutaneous xenograft tumor BALB/c nude mouse model; conditions: for Tumor volume (Day 0): Day 0 (at grouping), OVCAR-3 xenograft, BALB/c nude mice; for Tumor volume (Day 7): 10 mg/kg from day 0 to day 7; for Tumor volume (Day 14): 10 mg/kg from day 0 to day 14; for Tumor volume (Day 21): 10 mg/kg day 0 to day 14, 30 mg/kg from day 14 to day 21
Protocol: In vivo efficacy study of human ovarian cancer OVCAR-3 cells subcutaneous xenograft tumor BALB/c nude mouse model
Cell culture: Human ovarian cancer OVCAR-3 cells were monolayer cultured in vitro, the culture conditions were 10% fetal bovine serum, 100 U/mL Penicillin and 100 μg/mL Streptomycin were added in RPMI 1640 medium, cultured at 37° C. 5% CO2 incubator. Conventional digestion with trypsin-EDTA was performed for passage. When the cell saturation was 80%/90% and the number reached the required level, the cells were collected, counted, and inoculated.
Animals: BALB/c nude mice, female, 6-8 weeks old, weighed 18-22 grams. A total of 95 (42+ additional 53) animals were needed, provided by the Experimental Animal Management Department of Shanghai Institute of Family Planning Sciences (formerly Shanghai Sipulbichem).
Tumor inoculation: 0.2 mL (1×10^7) OVCAR-3 cells (with matrix glue, volume ratio of 1:1) were subcutaneously inoculated on the right back of each mouse, and the mice were grouped administrated when the average tumor volume reached about 150 mm^3.
Dosage and frequency of administration: Day 0 to Day 7, 10 mg/kg; Day 7 to Day 14, 10 mg/kg; Day 14 to Day 21, 30 mg/kg;
Experimental index: The experimental index was used to examine whether tumor growth was inhibited, delayed or cured. Tumor diameters were measured with vernier calipers twice a week. The calculation formula of tumor volume was: V=0.5a×b^2, wherein a and b represented the long and short diameters of the tumor, respectively.

CDK9/CyclinT1, sequence (P50750 whole entry): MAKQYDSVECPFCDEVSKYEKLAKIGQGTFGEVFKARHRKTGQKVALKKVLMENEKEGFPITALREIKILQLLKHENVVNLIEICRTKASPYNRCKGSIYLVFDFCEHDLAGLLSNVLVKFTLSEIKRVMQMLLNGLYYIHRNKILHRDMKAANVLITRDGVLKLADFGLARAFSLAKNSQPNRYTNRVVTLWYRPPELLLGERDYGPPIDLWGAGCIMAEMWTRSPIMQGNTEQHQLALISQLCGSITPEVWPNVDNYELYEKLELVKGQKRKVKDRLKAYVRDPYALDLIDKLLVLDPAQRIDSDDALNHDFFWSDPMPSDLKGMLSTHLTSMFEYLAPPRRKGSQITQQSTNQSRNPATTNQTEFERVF
CDK9/CyclinT1, sequence (O60563 whole entry partner): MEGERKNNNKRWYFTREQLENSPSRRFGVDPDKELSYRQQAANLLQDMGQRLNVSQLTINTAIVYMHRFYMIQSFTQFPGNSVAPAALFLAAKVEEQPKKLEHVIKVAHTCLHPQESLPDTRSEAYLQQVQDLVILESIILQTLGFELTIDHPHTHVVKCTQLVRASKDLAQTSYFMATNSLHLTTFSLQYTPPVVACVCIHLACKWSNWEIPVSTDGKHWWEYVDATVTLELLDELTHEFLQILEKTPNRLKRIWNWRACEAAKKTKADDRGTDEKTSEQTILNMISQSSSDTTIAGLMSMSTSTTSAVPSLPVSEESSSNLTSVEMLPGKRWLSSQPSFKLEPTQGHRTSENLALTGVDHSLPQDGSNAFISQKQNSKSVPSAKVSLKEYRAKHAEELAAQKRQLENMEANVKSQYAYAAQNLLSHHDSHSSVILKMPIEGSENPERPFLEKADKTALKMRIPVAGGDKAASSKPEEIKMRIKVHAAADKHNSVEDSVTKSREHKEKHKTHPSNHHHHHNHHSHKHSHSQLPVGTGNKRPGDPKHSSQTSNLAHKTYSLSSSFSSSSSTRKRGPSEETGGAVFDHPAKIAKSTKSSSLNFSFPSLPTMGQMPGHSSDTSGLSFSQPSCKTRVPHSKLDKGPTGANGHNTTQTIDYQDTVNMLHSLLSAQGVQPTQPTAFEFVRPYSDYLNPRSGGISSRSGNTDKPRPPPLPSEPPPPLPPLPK
CDK4/CyclinD1, sequence (P11802 whole entry): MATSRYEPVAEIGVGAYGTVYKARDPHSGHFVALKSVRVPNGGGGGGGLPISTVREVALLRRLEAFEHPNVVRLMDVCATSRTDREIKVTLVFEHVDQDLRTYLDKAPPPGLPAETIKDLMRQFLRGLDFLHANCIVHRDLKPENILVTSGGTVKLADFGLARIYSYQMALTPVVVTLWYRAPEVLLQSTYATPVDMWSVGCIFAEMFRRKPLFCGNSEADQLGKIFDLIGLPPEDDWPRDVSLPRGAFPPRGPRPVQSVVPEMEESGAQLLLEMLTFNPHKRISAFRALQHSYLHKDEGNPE
CDK4/CyclinD1, sequence (P24385 whole entry partner): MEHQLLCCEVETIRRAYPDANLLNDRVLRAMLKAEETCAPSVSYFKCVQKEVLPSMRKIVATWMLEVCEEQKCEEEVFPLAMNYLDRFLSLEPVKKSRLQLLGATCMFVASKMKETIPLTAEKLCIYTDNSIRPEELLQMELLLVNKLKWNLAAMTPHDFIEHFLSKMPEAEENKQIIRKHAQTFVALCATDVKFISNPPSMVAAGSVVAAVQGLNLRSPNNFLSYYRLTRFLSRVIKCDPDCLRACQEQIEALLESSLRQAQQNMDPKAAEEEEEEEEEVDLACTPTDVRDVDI
CDK6/CyclinD1, sequence (Q00534 whole entry): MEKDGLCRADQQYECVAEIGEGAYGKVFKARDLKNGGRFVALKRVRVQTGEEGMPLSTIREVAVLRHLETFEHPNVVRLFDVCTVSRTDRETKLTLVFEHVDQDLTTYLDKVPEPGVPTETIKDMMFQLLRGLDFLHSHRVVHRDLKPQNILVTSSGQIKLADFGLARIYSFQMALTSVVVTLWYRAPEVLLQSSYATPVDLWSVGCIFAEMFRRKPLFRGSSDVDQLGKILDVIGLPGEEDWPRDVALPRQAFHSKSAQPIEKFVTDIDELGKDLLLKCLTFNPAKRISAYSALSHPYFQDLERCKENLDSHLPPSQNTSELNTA
CDK6/CyclinD1, sequence (P24385 whole entry partner): as the sequence (P24385 whole entry partner) above

pIC50 (CDK2/CyclinE1) | pIC50 (CDK4/CyclinD1) | pIC50 (CDK6/CyclinD1) | pIC50 (CDK9/CyclinT1) | SMILES | Tumor volume (Day 0) [1] [mm^3] | Tumor volume (Day 7) [1] [mm^3] | Tumor volume (Day 14) [1] [mm^3] | Tumor volume (Day 21) [1] [mm^3]
8.45 | 9.30 | 8.87 | 7.43 | CS(=O)(=O)N1CCC(Nc2ncc3cc(C(F)F)nc(N[C@@H]4CCCC4(F)F)c3n2)CC1 (single isomer, unassigned) [Compound 22] | 151 | 243 | 319 | 238
8.88 | 9.09 | 9.25 | 6.98 | Cn1cc(Cl)c(Nc2nc(C(F)F)cc3cnc(NC4CCN(S(C)(=O)=O)CC4)nc23)n1 [Compound 20] | 151 | 236 | 338 | 363
8.33 | 8.37 | 8.94 | 6.75 | Cc1cn(C)nc1Nc1nc(C(F)F)cc2cnc(NC3CCN(S(C)(=O)=O)CC3)nc12 [Compound 19] | 151 | 246 | 375 | 392
